The experiment has as its system CEM cells HIV-1 protection, formazan growth assay. Put plainly: NCI AIDS Antiviral Assay. As to conditions: for IC50: measured here: growth of uninfected CEM cells. Summed up:
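Steps: treat uninfected and HIV-1-infected human CEM cells at five drug levels; quantify growth by soluble formazan; retest any compound reaching 50% protection; classify actives from the retest.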

71 compounds from PubChem BioAssay AID179 (DTP/NCI, 2004) can be followed below.

For orientation: EC50 means the concentration at which the effect is half-maximal. Usually IC50 stands for the concentration at which inhibition is half-maximal. Lower therefore signals greater potency in that assay.

The structures appear in SMILES notation. The source made the active and inactive calls.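 The calls were made as follows: active = compounds giving half or more protection of infected cells from virus-caused growth loss, again on retest; inactive = the rest.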 Where a SMILES comes first, the peptide text is derived from it. The star is where a group is joined. Boc = CC(C)(C)OC(=O)*

In the case of `O=C(CC1(O)C(=O)Nc2c(Cl)cc(Cl)cc21)c1ccc(Br)cc1Br` (stereo not given), the EC50 is > 51.3 µM and the IC50 turned out to be 44.7 µM. `O=c1[nH]c2ncsc2c(=O)n1OS(=O)(=O)c1ccccc1`: the EC50 is > 200 µM and the IC50 turned out to be 12.9 µM. The matching figures for `CCOC(=O)C1=C(C)NC(c2ccco2)=C(C#N)C1c1cccc([N+](=O)[O-])c1` (stereo not given): > 0.2 µM and 0.0832 µM.

Regarding `CC(C)N(C(C)C)P(OCCC#N)OC1CC(n2cnc3c(=O)[nH]cnc32)OC1COC(=O)NCCCCCCNC(=O)OC(C)(C)c1ccc(-c2ccccc2)cc1` (stereo not given), the EC50 was > 8.71 µM and the IC50 is > 8.71 µM.

For the compound `Cc1cc(O)c2c(=O)c3ccccc3[nH]c2c1`, the EC50 was > 200 µM and the half-maximal inhibitory concentration (IC50) was found to be 40.7 µM. As to `CC(=O)NNc1nc(C)c(C(=O)NNC(=O)C(=O)Nc2cccc(C(C)=O)c2)s1`, the EC50 is > 44.7 µM and the IC50 was > 44.7 µM.

Turning to `COC(=O)/C=C/N1CC1`, the EC50 was > 200 µM and the IC50 is > 200 µM. With `Cc1cc2c(C)nn(Cc3ccc(Cl)cc3)c2c(C#N)c1C`, the EC50 was > 43.7 µM and the IC50 is > 43.7 µM. As to `O=c1oc2ccccc2c(O)c1/C=N/C(=S)Nc1ccccc1`, the EC50 was > 200 µM and the IC50 amounted to 51.3 µM. As for `COc1ccc(C2Oc3ccc(Cl)cc3C=C2[N+](=O)[O-])cc1OC` (stereo not given), the EC50 is > 2 µM and the IC50 is 0.724 µM.

On to `CCOC(=O)c1cnc2[nH]c(=O)c3ccccc3n2c1=O`, for which the result was inactive. For `O=CC[C@@H]1c2ccccc2C=C[C@]12C=CC(=O)CC2`, the EC50 is > 74.1 µM and the IC50 was determined as 53.7 µM. As for `Clc1nc(Cl)nc(N2CCCc3ccccc32)n1`, the EC50 is > 200 µM and the IC50 was determined as 3.89 µM. For the compound `Cc1ccc(Cl)c2c(=O)c3ccc([N+](=O)[O-])cc3sc12`, the EC50 was > 151 µM and the IC50 was > 151 µM.

Regarding `CCC/C(Cl)=N/OC(=O)Nc1ccccc1C(F)(F)F`, the EC50 was > 20 µM and the IC50 is 3.39 µM. In the case of `CC1(C)OCC=CCO1`, the EC50 is > 200 µM and the IC50 is > 200 µM. Take `CCOC(=O)C1=C(O)C(=O)c2ccoc2C1=O`: the EC50 is > 79.4 µM and the IC50 is > 79.4 µM. For `N#Cc1c(NC(=S)Nc2ccccc2)sc2c1CCCC2`, the EC50 is > 200 µM and the IC50 was > 200 µM. `COc1ccc(OC)c(NC2=NCCO2)c1`: the EC50 was > 200 µM and the IC50 is 107 µM. Take `O=C1/C(=C/c2ccc(F)cc2)CCC/C1=C\c1ccc(F)cc1`: the EC50 was > 23.4 µM and the IC50 is > 23.4 µM. With `Cn1c(=S)c2c(nc(SCCc3ccccc3)n2CCc2ccccc2)n(C)c1=O`, the EC50 is > 200 µM and the IC50 stood at 29.5 µM.

`CN1CN(c2ccccc2)C2(CCN(CCCSc3ccccc3NC(=O)/C=C/c3ccccc3)CC2)C1=O`: the EC50 was > 200 µM and the IC50 was 3.31 µM. Take `COc1ccc2[nH]c3cc4c(=O)c5cc(OC)ccc5[nH]c4cc3c(=O)c2c1`: the EC50 was > 72.4 µM and the IC50 was > 72.4 µM. As for `COc1cc(C)cc2c1OC(c1ccccc1)CC2=O` (stereo not given), the EC50 is > 200 µM and the IC50 was determined as 52.5 µM.

As for `Cc1n(Cc2ccccc2)nc2sc(N)n[n+]12`, the EC50 was > 200 µM and the IC50 is 64.6 µM. Turning to `Cc1nc(N)nc(N)c1-c1ccc(Cl)c(Cl)c1`, the EC50 is > 200 µM. As for `CC(CS(C)(=O)=O)S(=O)(=O)O` (stereo not given), the EC50 is > 200 µM and the IC50 is > 200 µM. As to `CCCCNC(=O)Nc1c(C(N)=O)c2n(c1C(=O)OCC)CCCCC2`, the EC50 is > 50.1 µM and the IC50 is > 50.1 µM.

For `COC(=O)CNC(=O)C(Cc1ccccc1)NC(=O)C(Cc1ccccc1)NC(=O)OC(C)(C)C` (stereo not drawn) (Boc-Phe-Phe-Gly-OMe; configuration not given here), the EC50 was > 200 µM and the IC50 came to 24 µM. For the compound `Cc1cccc(/C=C2\CCCc3ccccc3C2=O)c1`, the EC50 is > 200 µM and the IC50 worked out at 11.2 µM.

With `CC1=C2C(=O)c3ccccc3C2=C(C)S(=O)(=O)O1`, the EC50 was > 955 µM and the IC50 was found to be 832 µM. Turning to `CC(C)(C)C1=CC(=C(c2ccccc2)c2ccccc2)C=C(C(C)(C)C)C1=O`, the EC50 is > 47.9 µM and the IC50 was > 47.9 µM.

With `CCc1c(CN)c(CC)c(CNC2=NCCN2)c(CC)c1CNC1=NCCN1`, the EC50 is > 200 µM and the IC50 is > 200 µM. As to `Nc1ccc2cc(S(=O)(=O)O)cc(O)c2c1N=Nc1ccc(-c2ccc(N=Nc3c(S(=O)(=O)O)cc4cc(S(=O)(=O)O)c(N=Nc5ccc([N+](=O)[O-])cc5)c(N)c4c3O)cc2)cc1`, the result was inactive. For `O=C1NC(S(=O)(=O)O)=NNC12c1ccccc1-c1ccccc12`, the EC50 was > 200 µM and the IC50 amounted to 107 µM. With `CN(Cc1cnc2nc(N)nc(N)c2n1)c1ccc(C(=O)NC(CCC(=O)O)C(=O)O)c2ccccc12` (stereo not given), the EC50 was > 0.2 µM and the IC50 came to 0.00219 µM. With `c1csc(-c2sc(-c3ccsc3)cc2Cc2ccsc2)c1`, the result was inactive. Take `CCOC(=O)/C(=C\c1ccc(-c2ccccc2)cc1)C(C)=O`: the EC50 is > 45.7 µM and the IC50 was > 45.7 µM. Take `CC1=NN(C(=O)CC(=O)NC(=O)CC(=O)Nc2ccccc2F)C(=O)C1N=Nc1ccc([N+](=O)[O-])cc1` (stereo not given): the EC50 was > 70.8 µM and the IC50 came to 44.7 µM. The matching figures for `CN(C)c1ccc(-c2c(C#N)c(O)n(NS(=O)(=O)c3ccccc3)c(=O)c2C#N)cc1`: > 200 µM and > 200 µM. In the same order, the values of `N/C(=N\NS(=O)(=O)c1ccccc1)Oc1ccc(Cl)cc1` are > 398 µM and 339 µM. Turning to `O=C(c1c(F)c(F)c(F)c(F)c1F)n1c(=S)n(C(=O)c2c(F)c(F)c(F)c(F)c2F)c2ccccc21`, the EC50 was > 100 µM and the IC50 amounted to 4.9 µM. `CC(C)CC(NC(=O)C(CC(=O)O)NC(=O)C(CO)NC(=O)C(CCCCN)NC(=O)C1CCCN1C(=O)C(CC(C)C)NC(=O)C(CO)NC(=O)CNC(=O)C(N)CCC(=O)O)C(=O)NC(CCCN=C(N)N)C(=O)O` (stereo not given) (H-EGSLPKSDLR-OH; configuration not given here): the EC50 is > 56.2 µM and the IC50 was > 56.2 µM.

In the case of `COc1ccc2c(OC)c3ccoc3nc2c1O`, the EC50 was > 50.1 µM and the IC50 worked out at 32.4 µM. For the compound `COc1cc(C2SC(N)=Nc3c2c(C)nn3C(=O)Cc2ccccc2)cc(OC)c1OC` (stereo not given), the EC50 was 49 µM and the IC50 was > 200 µM.

Take `CCOC(=O)/C(=C\N1C(=O)/C(=C\C(C)=C\c2ccccc2)SC1=S)C(=O)c1ccccc1`: the EC50 was 11 µM and the IC50 stood at 13.5 µM.

As for `COc1ccc(P2(=S)OCCOP(=S)(c3ccc(OC)cc3)S2)cc1` (stereo not given), the EC50 is > 117 µM and the IC50 is 3.98 µM.

For `Cc1nnc2c3nccnc3c(N)nn12`, the EC50 was > 200 µM and the half-maximal inhibitory concentration (IC50) was > 200 µM. On to `COc1ccc(NC(=O)CC(=O)NN2C(=O)/C(=C/c3ccc(N(CCC#N)CCC#N)cc3C)N=C2/C=C\c2ccccc2)cc1`, for which the outcome was inactive. For the compound `CC(C)OP(=O)(OC(C)C)/C(I)=N/Nc1ccc([N+](=O)[O-])cc1`, the EC50 is > 110 µM and the IC50 is > 110 µM. Consider `O=C(c1ccc(Cl)cc1)c1cnc2nc(-c3ccccc3)c(-c3ccccc3)nn12`, for which the EC50 was > 1.78 µM and the IC50 is > 1.78 µM. Consider `CNCCSS(=O)(=O)CCNC`, for which the EC50 is 214 µM and the IC50 turned out to be 457 µM.

On to `CC1(C)C2CCC1(CS(=O)O)C(=O)C2.[Ag]` (stereo not given), for which the EC50 is > 398 µM and the IC50 amounted to 7.94 µM. As to `O=c1cc(-c2ccccc2)oc2cc(OCCCOc3ccc4c(=O)cc(-c5ccccc5)oc4c3)ccc12`, the EC50 was > 3.89 µM and the 50% inhibitory concentration (IC50) was > 3.89 µM. With `CC12CCC(c3no[n+]([O-])c31)C2(C)C` (stereo not given), the EC50 is > 200 µM and the IC50 was determined as 110 µM.

Turning to `COc1ccc2c(c1)CCCN1Cc3cc(OC)c(OC)cc3CC21` (stereo not given), the EC50 was > 200 µM and the IC50 was 87.1 µM. With `CC(=O)N(C)CCc1c[nH]c2ccccc12`, the EC50 was > 200 µM and the IC50 was > 200 µM. As for `O=C1OC[C@H](Cc2ccccc2)N1C(=O)[C@H]1NC(=S)OC1Cc1ccc(OCc2ccccc2)cc1` (stereo not given in full), the result was inactive. As for `CCOC(=O)/C=C/c1ccccc1Br`, the EC50 was > 38.9 µM and the IC50 is > 38.9 µM. As for `C/C=C/OC1C(C2COC(C)(C)O2)OC2OC(C)(C)OC21` (stereo not given), the EC50 is > 200 µM and the IC50 was > 200 µM.

Turning to `CC1=CC(=C(c2ccc(N)c(S(=O)(=O)O)c2)c2ccc(N)c(S(=O)(=O)O)c2)C=C(S(=O)(=O)O)C1=N`, the outcome was inactive. With `S=c1sc2c(n1-c1ccccc1)NC=NC2S` (stereo not given), the EC50 was > 468 µM and the IC50 was found to be 22.9 µM. With `O=C(N/C(=C\c1ccc(F)cc1)c1nc2ccccc2[nH]1)c1ccccc1`, the EC50 was > 191 µM and the IC50 was > 191 µM.

As to `CSc1nc(=O)n(CCC#N)nc1SC`, the EC50 was > 200 µM and the IC50 turned out to be 29.5 µM. `N#C/C(=C/NC(N)=S)C(N)=O`: the EC50 was > 200 µM and the IC50 was > 200 µM. With `CCO/C=N\C1=C(C#N)SC2=N/C(=C\c3ccc(OC)cc3)C(=O)N21`, the EC50 is > 200 µM and the IC50 was > 200 µM. Take `CC(=O)[C-](C)C(C)=O.CC(=O)[C-](C)C(C)=O.NCCNCCNC(=O)c1cccc2nc3ccccc3nc12.[Cl-].[Co+3]`: the EC50 was > 151 µM and the IC50 was found to be 31.6 µM. Regarding `C=CCCCC(C)(C(=O)OC(C)(C)C)C1=NOC(C)(C)C1` (stereo not given), the EC50 is > 200 µM and the IC50 is > 200 µM. In the case of `COc1cc2c(cc1OC)C1c3ccccc3CCN1CC2` (stereo not given), the EC50 was > 200 µM and the IC50 turned out to be 93.3 µM.

Regarding `CCN(CC)c1ccc(N=Nc2ccc(-c3nc4cccnc4o3)cc2)cc1`, the EC50 is > 19.5 µM and the IC50 is > 19.5 µM. Turning to `COc1ccc2nc3cc(Cl)ccc3c(Sc3ccc([N+](=O)[O-])cc3C)c2c1`, the EC50 was > 12.6 µM and the IC50 was > 12.6 µM.
